Laboratory results: ChEMBL document CHEMBL1212927, “Synthesis and structure-activity relationships of novel 8a-aza-8a-homoerythromycin A ketolides” (2010)
≈ marks a conversion by molar mass, not a printed value.

Assays:
Staphylococcus aureus [1] = assay: Antibacterial activity against erythromycin A-susceptible Staphylococcus aureus B0329 by agar microdilution method
Staphylococcus aureus [2] = assay: Antibacterial activity against constitutive macrolide-lincosamide-streptogramin B-resistant Staphylococcus aureus B0330 by agar microdilution method; format: functional
Streptococcus pyogenes [3] = assay: Antibacterial activity against inducible macrolide-lincosamide-streptogramin B-resistant Streptococcus pyogenes B0543 by agar microdilution method; format: functional
Streptococcus pyogenes [4] = assay: Antibacterial activity against constitutive macrolide-lincosamide-streptogramin B-resistant Streptococcus pyogenes B0544 by agar microdilution method; format: functional
Streptococcus pneumoniae [5] = assay: Antibacterial activity against efflux-resistant Streptococcus pneumoniae B0326 by agar microdilution method; format: functional
Streptococcus pyogenes [6] = assay: Antibacterial activity against efflux-resistant Streptococcus pyogenes B0545 by agar microdilution method; format: functional
Streptococcus pyogenes [7] = assay: Antibacterial activity against erythromycin A-susceptible Streptococcus pyogenes B0542 by agar microdilution method
Streptococcus pneumoniae [8] = assay: Antibacterial activity against constitutive macrolide-lincosamide-streptogramin B-resistant Streptococcus pneumoniae B0627 by agar microdilution method; format: functional
Streptococcus pneumoniae [9] = assay: Antibacterial activity against erythromycin-susceptible Streptococcus pneumoniae B0541 by agar microdilution method
Staphylococcus aureus [10] = assay: Antibacterial activity against inducible macrolide-lincosamide-streptogramin B-resistant Staphylococcus aureus B0538 by agar microdilution method; format: functional
Moraxella catarrhalis = assay: Antibacterial activity against Moraxella catarrhalis B0324 by agar microdilution method; format: functional
Haemophilus influenzae = assay: Antibacterial activity against Haemophilus influenzae B0529 by agar microdilution method; format: functional
Staphylococcus aureus [11] = assay: Antibacterial activity against efflux-resistant Staphylococcus aureus B0331 by agar microdilution method; format: functional

Structure (SMILES) | MIC (Staphylococcus aureus [1]) | MIC (Staphylococcus aureus [2]) | MIC (Streptococcus pyogenes [3]) | MIC (Streptococcus pyogenes [4]) | MIC (Streptococcus pneumoniae [5]) | MIC (Streptococcus pyogenes [6]) | MIC (Streptococcus pyogenes [7]) | MIC (Streptococcus pneumoniae [8]) | MIC (Streptococcus pneumoniae [9]) | MIC (Staphylococcus aureus [10]) | MIC (Moraxella catarrhalis) | MIC (Haemophilus influenzae) | MIC (Staphylococcus aureus [11])
CC[C@H]1OC(=O)[C@H](C)[C@@H](O[C@H]2C[C@@](C)(OC)[C@@H](O)[C@H](C)O2)[C@H](C)[C@@H](O[C@@H]2O[C@H](C)C[C@H](N(C)C)[C@H]2O)[C@](C)(O)C[C@@H](C)CN(C)[C@H](C)[C@@H](O)[C@]1(C)O [AZITHROMYCIN] | 1 µg/mL (≈ 1.34 µM) | > 64 µg/mL | 8 µg/mL (≈ 10.7 µM) | > 64 µg/mL | 4 µg/mL (≈ 5.34 µM) | 1 µg/mL (≈ 1.34 µM) | ≤ 0.125 µg/mL | > 64 µg/mL | ≤ 0.125 µg/mL | > 64 µg/mL | 0.25 µg/mL (≈ 0.334 µM) | 1 µg/mL (≈ 1.34 µM) | > 64 µg/mL
CC[C@H]1OC(=O)[C@H](C)C(=O)[C@H](C)[C@@H](O[C@@H]2O[C@H](C)C[C@H](N(C)C)[C@H]2O)[C@](C)(OCC(O)CN2CCN(c3ccc([N+](=O)[O-])cc3)CC2)C[C@@H](C)NC(=O)[C@H](C)[C@@H](O)[C@]1(C)O (stereo partly specified) | 1 µg/mL (≈ 1.17 µM) | > 64 µg/mL | 2 µg/mL (≈ 2.35 µM) | 8 µg/mL (≈ 9.39 µM) | 2 µg/mL (≈ 2.35 µM) | 1 µg/mL (≈ 1.17 µM) | 0.25 µg/mL (≈ 0.293 µM) | 4 µg/mL (≈ 4.69 µM) | ≤ 0.125 µg/mL | 2 µg/mL (≈ 2.35 µM) | 0.5 µg/mL (≈ 0.587 µM) | 8 µg/mL (≈ 9.39 µM) | 2 µg/mL (≈ 2.35 µM)
CC[C@H]1OC(=O)[C@H](C)C(=O)[C@H](C)[C@@H](O[C@@H]2O[C@H](C)C[C@H](N(C)C)[C@H]2O)[C@](C)(OC[C@H](O)CNCCNc2ccc3ncccc3c2)C[C@@H](C)NC(=O)[C@H](C)[C@@H](O)[C@]1(C)O | ≤ 0.125 µg/mL | > 64 µg/mL | 0.5 µg/mL (≈ 0.601 µM) | 4 µg/mL (≈ 4.81 µM) | 0.25 µg/mL (≈ 0.3 µM) | 0.5 µg/mL (≈ 0.601 µM) | ≤ 0.125 µg/mL | 0.5 µg/mL (≈ 0.601 µM) | ≤ 0.125 µg/mL | 0.25 µg/mL (≈ 0.3 µM) | 0.5 µg/mL (≈ 0.601 µM) | 0.5 µg/mL (≈ 0.601 µM) | 0.5 µg/mL (≈ 0.601 µM)
CC[C@H]1OC(=O)[C@H](C)C(=O)[C@H](C)[C@@H](O[C@@H]2O[C@H](C)C[C@H](N(C)C)[C@H]2O)[C@](C)(OCC(O)CN2CCN(c3ccc(F)cc3)CC2)C[C@@H](C)NC(=O)[C@H](C)[C@@H](O)[C@]1(C)O (stereo partly specified) | 4 µg/mL (≈ 4.85 µM) | > 64 µg/mL | 4 µg/mL (≈ 4.85 µM) | > 64 µg/mL | 16 µg/mL (≈ 19.4 µM) | 4 µg/mL (≈ 4.85 µM) | ≤ 0.125 µg/mL | 32 µg/mL (≈ 38.8 µM) | 0.5 µg/mL (≈ 0.606 µM) | 16 µg/mL (≈ 19.4 µM) | 4 µg/mL (≈ 4.85 µM) | 32 µg/mL (≈ 38.8 µM) | 16 µg/mL (≈ 19.4 µM)
CC[C@H]1OC(=O)[C@H](C)C(=O)[C@H](C)[C@@H](O[C@@H]2O[C@H](C)C[C@H](N(C)C)[C@H]2O)[C@](C)(OCC(O)CNc2cnc3ccccc3c2)C[C@@H](C)NC(=O)[C@H](C)[C@@H](O)[C@]1(C)O (stereo partly specified) | 2 µg/mL (≈ 2.53 µM) | > 64 µg/mL | 4 µg/mL (≈ 5.07 µM) | 16 µg/mL (≈ 20.3 µM) | 2 µg/mL (≈ 2.53 µM) | 8 µg/mL (≈ 10.1 µM) | ≤ 0.125 µg/mL | 8 µg/mL (≈ 10.1 µM) | ≤ 0.125 µg/mL | 2 µg/mL (≈ 2.53 µM) | 0.5 µg/mL (≈ 0.634 µM) | 8 µg/mL (≈ 10.1 µM) | 1 µg/mL (≈ 1.27 µM)
CC[C@H]1OC(=O)[C@H](C)C(=O)[C@H](C)[C@@H](O[C@@H]2O[C@H](C)C[C@H](N(C)C)[C@H]2O)[C@](C)(OCC(O)CNCCCc2cccnc2)C[C@@H](C)NC(=O)[C@H](C)[C@@H](O)[C@]1(C)O (stereo partly specified) | 2 µg/mL (≈ 2.56 µM) | > 64 µg/mL | 0.5 µg/mL (≈ 0.64 µM) | 16 µg/mL (≈ 20.5 µM) | 4 µg/mL (≈ 5.12 µM) | 1 µg/mL (≈ 1.28 µM) | ≤ 0.125 µg/mL | 1 µg/mL (≈ 1.28 µM) | 0.25 µg/mL (≈ 0.32 µM) | 4 µg/mL (≈ 5.12 µM) | 0.5 µg/mL (≈ 0.64 µM) | 16 µg/mL (≈ 20.5 µM) | 4 µg/mL (≈ 5.12 µM)
CC[C@H]1OC(=O)[C@H](C)C(=O)[C@H](C)[C@@H](O[C@@H]2O[C@H](C)C[C@H](N(C)C)[C@H]2O)[C@](C)(OCC(O)CNCCCc2ccccc2)C[C@@H](C)NC(=O)[C@H](C)[C@@H](O)[C@]1(C)O (stereo partly specified) | 4 µg/mL (≈ 5.13 µM) | > 64 µg/mL | 1 µg/mL (≈ 1.28 µM) | 16 µg/mL (≈ 20.5 µM) | 8 µg/mL (≈ 10.3 µM) | 1 µg/mL (≈ 1.28 µM) | 0.25 µg/mL (≈ 0.321 µM) | 8 µg/mL (≈ 10.3 µM) | 0.25 µg/mL (≈ 0.321 µM) | 8 µg/mL (≈ 10.3 µM) | 1 µg/mL (≈ 1.28 µM) | 16 µg/mL (≈ 20.5 µM) | 8 µg/mL (≈ 10.3 µM)
CC[C@H]1OC(=O)[C@H](C)C(=O)[C@H](C)[C@@H](O[C@@H]2O[C@H](C)C[C@H](N(C)C)[C@H]2O)[C@](C)(OCC(O)CNCCc2cccnc2)C[C@@H](C)NC(=O)[C@H](C)[C@@H](O)[C@]1(C)O (stereo partly specified) | 4 µg/mL (≈ 5.22 µM) | > 64 µg/mL | 4 µg/mL (≈ 5.22 µM) | 32 µg/mL (≈ 41.7 µM) | 8 µg/mL (≈ 10.4 µM) | 2 µg/mL (≈ 2.61 µM) | 0.25 µg/mL (≈ 0.326 µM) | 2 µg/mL (≈ 2.61 µM) | 0.5 µg/mL (≈ 0.652 µM) | 8 µg/mL (≈ 10.4 µM) | 1 µg/mL (≈ 1.3 µM) | 8 µg/mL (≈ 10.4 µM) | 4 µg/mL (≈ 5.22 µM)
C=CCO[C@]1(C)C[C@@H](C)NC(=O)[C@H](C)[C@@H](O)[C@](C)(O)[C@@H](CC)OC(=O)[C@H](C)C(=O)[C@H](C)[C@H]1O[C@@H]1O[C@H](C)C[C@H](N(C)C)[C@H]1O | 8 µg/mL (≈ 12.7 µM) | > 64 µg/mL | > 64 µg/mL | > 64 µg/mL | 4 µg/mL (≈ 6.36 µM) | 8 µg/mL (≈ 12.7 µM) | 4 µg/mL (≈ 6.36 µM) | > 64 µg/mL | 1 µg/mL (≈ 1.59 µM) | > 64 µg/mL | 8 µg/mL (≈ 12.7 µM) | 16 µg/mL (≈ 25.4 µM) | 16 µg/mL (≈ 25.4 µM)
CC[C@H]1OC(=O)[C@H](C)C(=O)[C@H](C)[C@@H](O[C@@H]2O[C@H](C)C[C@H](N(C)C)[C@H]2O)[C@](C)(OCC(O)CNCc2ccc3ncccc3c2)C[C@@H](C)NC(=O)[C@H](C)[C@@H](O)[C@]1(C)O (stereo partly specified) | 0.5 µg/mL (≈ 0.623 µM) | > 64 µg/mL | 2 µg/mL (≈ 2.49 µM) | 8 µg/mL (≈ 9.96 µM) | 1 µg/mL (≈ 1.25 µM) | 2 µg/mL (≈ 2.49 µM) | ≤ 0.125 µg/mL | 4 µg/mL (≈ 4.98 µM) | ≤ 0.125 µg/mL | 0.5 µg/mL (≈ 0.623 µM) | 1 µg/mL (≈ 1.25 µM) | 1 µg/mL (≈ 1.25 µM) | 0.25 µg/mL (≈ 0.311 µM)
CC[C@H]1OC(=O)[C@H](C)C(=O)[C@H](C)[C@@H](O[C@@H]2O[C@H](C)C[C@H](N(C)C)[C@H]2O)[C@](C)(OCC=Cc2cnc3ccccc3c2)C[C@@H](C)C(=O)[C@H](C)[C@H]2NC(=O)O[C@@]21C [CETHROMYCIN] | ≤ 0.06 µg/mL | > 64 µg/mL | ≤ 0.06 µg/mL | 1 µg/mL (≈ 1.31 µM) | ≤ 0.06 µg/mL | ≤ 0.125 µg/mL | ≤ 0.06 µg/mL | ≤ 0.125 µg/mL | ≤ 0.06 µg/mL | 0.25 µg/mL (≈ 0.326 µM) | ≤ 0.125 µg/mL | 1 µg/mL (≈ 1.31 µM) | 0.25 µg/mL (≈ 0.326 µM)
CC[C@H]1OC(=O)[C@H](C)C(=O)[C@H](C)[C@@H](O[C@@H]2O[C@H](C)C[C@H](N(C)C)[C@H]2O)[C@](C)(OCC(O)CN[C@H](C)Cc2ccc([N+](=O)[O-])cc2)C[C@@H](C)NC(=O)[C@H](C)[C@@H](O)[C@]1(C)O (mixture of isomers) | 0.5 µg/mL | > 64 µg/mL | 0.5 µg/mL | 4 µg/mL | 1 µg/mL | 0.5 µg/mL | ≤ 0.125 µg/mL | 2 µg/mL | ≤ 0.125 µg/mL | 2 µg/mL | 0.25 µg/mL | 1 µg/mL | 2 µg/mL
